According to patent US20240100053A1, “PHARMACEUTICAL COMPOSITION” (priority 2021, published 2024):

Experiments:
[1] = tested on: PK-1 cells and PK-45P cells; experiment: Cell cycle by FACS; format: cell-based; conditions: after addition of BLU9931, FIG. 3C
[2] = tested on: ERK, AKT, and STAT3 downstream of FGF19/FGFR4 signaling; experiment: Immunoblotting of ERK, AKT, STAT3 in PK-45P cells; format: cell-based; conditions: FIG. 4
[3] = tested on: PK-1 cells; experiment: Cell invasion, Corning Matrigel Invasion Chamber; format: cell-based; conditions: 2 μM, 16 hours, FIG. 5
Procedure: 1×10^5 cells/500 μL of PK-1 cells were seeded on top of the insert.

[4] = tested on: ERK, AKT, and STAT3 downstream of FGF19/FGFR4 signaling; experiment: Immunoblotting of ERK, AKT, STAT3 in PK-1 cells; format: cell-based; conditions: 2 μM, FIG. 4
[5] = tested on: PK-1 cells and PK-45P cells; experiment: Cytotoxicity by FACS using annexin V and PI; format: cell-based; conditions: 2 μM, FIG. 3B
[6] = tested on: PK-1 cells; experiment: Cellular aging: morphology and SA-β-Gal staining; format: cell-based; conditions: 2 μM
Procedure: In this example, an aging of cells by BLU9931 was examined. […] This morphological change was considered to be due to cellular aging. The present inventors measured the activity of senescence-associated β-galactosidase (SA-β-Gal), a marker of cellular aging.
After staining, nuclear staining was performed with DAPI.

[7] = tested on: PK-1 cells; experiment: Cell proliferation by ATP assay, FGFR4-high PK-1 cells; format: cell-based; conditions: PK-1 cells (high FGFR4); 250 nM, 500 nM, 1 μM or 2 μM; 72 hours; volume-dependent manner; FIG. 3A
Procedure: (§1) After 72 hours of incubation, the effect on cell proliferation was examined by ATP assay.

[8] = tested on: phosphorylation of H2A.X; experiment: DNA damage by phosphorylation of H2A.X (immunofluorescence); format: cell-based; conditions: incubation time increased from 3 days to 7 days; FIG. 7
Procedure: BLU9931-treated cells were incubated with anti-γHA2.X mouse monoclonal antibody at 4° C. overnight. Cells were treated with Alexa-Fluor-conjugated secondary antibodies and nuclear staining was performed with DAPI.

[9] = tested on: FGFR1-3; conditions: general statement in the description, no test shown; cited from earlier work
[10] = tested on: PK-45P cells; experiment: Cell proliferation by ATP assay, FGFR4-low PK-45P cells; format: cell-based; conditions: PK-45P cells (low FGFR4); 250 nM to 2 μM; 72 hours; FIG. 3A
Procedure: as §1

## C=CC(=O)Nc1cccc(C)c1Nc1ncc2cc(-c3c(Cl)c(OC)cc(OC)c3Cl)ccc2n1 [BLU9931]
[1]; 20.7% without
  number of cells in S phase: 13.5%
[1]; 60.7% without
  number of cells in G0/G1 phase: 70.1%
[2]
  expression of AKT: not decreased
  expression of ERK: not decreased
  expression of STAT3: not decreased
[3]
  cell invasion: inhibited
[4]
  expression of AKT: decreased
  expression of ERK: decreased
  expression of STAT3: decreased
[5]
  apoptosis, necrosis, or cell damage observed in cells: ≤ 2%
  cytotoxicity: no significant effects
[6]; FIG. 6
  number of SA-β-Gal positive cells compared to the control cells: increased
[6]; PK-1 cells, 1 week, FIG. 6A
  cell morphology compared to the control cells: larger and flattened
[7]
  cell proliferation: suppressed
[8]
  DNA damage of the cells: progressed
[9]
  inhibition of FGFR1-3: does not inhibit
[10]
  cell proliferation: no effect
